According to patent JP2011219500A, “ムスカリンレセプターアンタゴニストとしての有用なビフェニル化合物” (Theravance Inc, priority 2011, dated 2011):
Like-named read-outs stand apart in the source and are kept apart here.

Tests used:
[1] = biological target: T1, M3 muscarinic receptor subtype (M3ムスカリン性レセプターサブタイプ) (Homo sapiens, UniProt P20309); assay: Assay 1: radioligand binding assay ([3H]-NMS displacement)
T1 construct: expressed in transfected cells; membrane preparation

[2] = biological target: T2, hM3 receptor (hM3レセプター) (Homo sapiens, UniProt P20309); assay: Assay 2C: blockade of agonist-mediated calcium release via FLIPR assay; type: cell-based
T2 construct: expressed in transfected cells

[3] = test system: ACh-induced bronchoconstriction (ACh誘導性気管支収縮); assay: Assay 3: duration of bronchoprotection in guinea pig model of acetylcholine-induced bronchoconstriction; type: in vivo; conditions: inhalation, 1.5 h post-dose

T1 sequence (P20309 whole entry): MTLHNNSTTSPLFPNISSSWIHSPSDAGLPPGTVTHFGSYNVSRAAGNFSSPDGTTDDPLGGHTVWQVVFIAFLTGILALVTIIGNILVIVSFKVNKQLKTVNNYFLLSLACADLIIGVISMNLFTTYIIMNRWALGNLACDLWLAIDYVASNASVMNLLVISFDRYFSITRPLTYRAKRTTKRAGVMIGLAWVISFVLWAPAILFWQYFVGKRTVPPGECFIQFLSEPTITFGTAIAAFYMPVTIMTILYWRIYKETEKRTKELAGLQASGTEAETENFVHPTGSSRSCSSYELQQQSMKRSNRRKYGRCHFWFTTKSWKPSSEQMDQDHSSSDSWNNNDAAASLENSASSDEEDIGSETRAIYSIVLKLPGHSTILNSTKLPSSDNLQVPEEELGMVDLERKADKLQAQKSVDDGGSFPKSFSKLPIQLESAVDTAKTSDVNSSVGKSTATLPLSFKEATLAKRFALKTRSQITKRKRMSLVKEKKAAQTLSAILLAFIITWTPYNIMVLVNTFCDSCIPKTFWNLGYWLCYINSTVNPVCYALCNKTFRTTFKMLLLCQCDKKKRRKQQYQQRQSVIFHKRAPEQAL
T2 sequence (P20309 whole entry): as above

Ki ([1]; M3 subtype, [3H]-NMS displacement, CHO cell membranes, printed as less than about, read-out: Ki) | SMILES | Ki [1] | Ki [2] | PD2(50) [3]
– | CN(CCN1CCC(OC(=O)Nc2ccccc2-c2ccccc2)CC1)C(=O)c1ccc(CN2CCC(C(N)=O)CC2)cc1 [実施例1, ビフェニル−2−イルカルバミン酸 1−(2−{[4−(4−カルバモイルピペリジン−1−イルメチル)ベンゾイル]メチルアミノ}エチル)ピペリジン−4−イルエステル] | < 5 nM | < 5 nM | < 200 µg/mL
< 5 nM | CCN(CCN1CCC(OC(=O)Nc2ccccc2-c2ccccc2)CC1)C(=O)c1ccc(CN2CCC(C(N)=O)CC2)cc1 [実施例2, ビフェニル−2−イルカルバミン酸 1−(2−{[4−(4−カルバモイルピペリジン−1−イルメチル)−ベンゾイル]エチルアミノ}エチル)ピペリジン−4−イルエステル] | – | – | –
